Measured values: ChEMBL document CHEMBL6115007, “Synthesis and in vitro and in vivo evaluation of novel bivalent quinolines as antitumor agents via targeting autophagy in cervical cancer” (Eur J Med Chem, 2025)
Activity calls are given as the source filed them. No cut-off for these calls is given here.

How the values were obtained:
Ca-Ski [1] = test: Effect on cleaved caspase 3 expression level in Bax deficient human Ca Ski cells at 0.5 to 1 uM incubated for 24 hrs by Western blot analysis; format: functional, cell-based; details: dose 0.5-1 µM
[2] = Toxicity in female BALB/c mouse xenografted with human HeLa cells assessed as effect on platelet level at 4 to 8 mg/kg administered every four days and measured after 26 days; format: organism-based; details: in vivo, 624 h, dose 4-8 mg/kg, time 26 day
[3] = Toxicity in female BALB/c mouse xenografted with human HeLa cells assessed as effect on kidney at 4 to 8 mg/kg administered every four days and measured after 26 days by H and E staining based analysis; format: organism-based; details: in vivo, 624 h, dose 4-8 mg/kg, time 26 day
[4] = Toxicity in female BALB/c mouse xenografted with human HeLa cells assessed as effect on BUN level at 4 to 8 mg/kg administered every four days and measured after 26 days; format: organism-based; details: in vivo, 624 h, dose 4-8 mg/kg, time 26 day
Ca-Ski [5] = test: Inhibition of colony formation in human Ca Ski cells assessed as reduction in colony forming unit count at 0.1 to 0.4 uM incubated for 24 hrs by crystal violet staining based analysis; format: functional, cell-based; details: dose 0.1-0.4 µM
HeLa [6] = test: Antiproliferative activity against human HeLa cells assessed as inhibition of cell viability incubated for 24 hrs by CCK8 assay; format: functional, cell-based
[7] = Toxicity in female BALB/c mouse xenografted with human HeLa cells assessed as effect on RBC level at 4 to 8 mg/kg administered every four days and measured after 26 days; format: organism-based; details: in vivo, 624 h, dose 4-8 mg/kg, time 26 day
HeLa [8] = test: Effect on ACSL4 protein expression level in human HeLa cells at 0.6 uM incubated for 24 hrs by Western blot analysis; format: functional, cell-based
HeLa [9] = test: Effect on SLC7A11 protein expression level in human HeLa cells at 0.6 uM incubated for 24 hrs by Western blot analysis; format: functional, cell-based
Ca-Ski [10] = test: Induction of ferroptosis in human Ca Ski cells assessed as increase in lipid ROS level by measuring rightward shift in fluorescence intensity at 0.5 uM measured after 24 hrs by C11-BODIPY-581/591 staining based flow cytometric analysis; format: functional, cell-based
SiHa = test: Antiproliferative activity against human SiHa cells assessed as inhibition of cell growth at 0.4 to 1.6 uM by CCK8 assay; format: functional, cell-based; details: dose 0.4-1.6 µM, time 6.0 day
HeLa [11] = test: Effect on ATG16L1 protein level in human HeLa cells at 0.6 to 1.2 uM incubated for 24 hrs by Western blot analysis; format: functional, cell-based; details: dose 0.6-1.2 µM
C-33-A = test: Inhibition of colony formation in human C-33-A cells assessed as reduction in colony forming unit count at 0.05 to 0.2 uM incubated for 24 hrs by crystal violet staining based analysis; format: functional, cell-based; details: dose 0.05-0.2 µM
HeLa [12] = test: Inhibition of cell migration in human HeLa cells at 0.6 to 1.2 uM measured after 24 hrs by transwell migration assay; format: functional, cell-based; details: dose 0.6-1.2 µM
Ca-Ski [13] = test: Induction of autophagy in ATG5 deficient human Ca Ski cells assessed as increase in LC3-II expression at 0.5 to 1 uM incubated for 24 hrs by Western blot analysis; format: functional, cell-based; details: dose 0.5-1 µM
HeLa [14] = test: Effect on apoptosis pathway related gene expression in human HeLa cells at 1.2 uM incubated for 24 hrs by GSVA enrichment analysis; format: functional, cell-based
Ca-Ski [15] = test: Effect on PARP expression level in Bax deficient human Ca Ski cells at 0.5 to 1 uM incubated for 24 hrs by Western blot analysis; format: functional, cell-based; details: dose 0.5-1 µM
HeLa [16] = test: Induction of apoptosis in human HeLa cells assessed as necrotic cells at 1.2 uM incubated for 24 hrs by Annexin V-FITC/PI staining based flow cytometric analysis (reference value: 1.88 %); format: functional
HeLa [17] = test: Induction of autophagy in human HeLa cells transfected with mRFP-GFP-LC3 plasmid assessed as appearance of RFP puncta clusters as aggregates in cytoplasm at 30 uM incubated for 24 hrs by DAPI staining based fluorescence confocal microscopic analysis; format: functional, cell-based
Ca-Ski [18] = test: Inhibition of cell migration in human Ca Ski cells at 0.5 to 1 uM measured after 24 hrs by transwell migration assay; format: functional, cell-based; details: dose 0.5-1 µM
Ca-Ski [19] = test: Induction of morphological changes in human Ca Ski cells assessed as increase in appearance of round cells at 0.5 to 2 uM by microphotographic analysis; format: functional, cell-based; details: dose 0.5-2 µM
HeLa [20] = test: Effect on PARP expression level in Bax deficient human HeLa cells at 0.6 to 1.2 uM incubated for 24 hrs by Western blot analysis; format: functional, cell-based; details: dose 0.6-1.2 µM
Ca-Ski [21] = test: Induction of autophagy in human Ca Ski cells transfected with mRFP-GFP-LC3 plasmid assessed as stable RFP fluorescence at 25 uM incubated for 24 hrs by DAPI staining based fluorescence confocal microscopic analysis; format: functional, cell-based
Ca-Ski [22] = test: Induction of morphological changes in human Ca Ski cells assessed as increase in inflated cell appearance at 0.5 to 2 uM by microphotographic analysis; format: functional, cell-based; details: dose 0.5-2 µM
HCT-116 = test: Antiproliferative activity against human HCT-116 cells assessed as reduction in cell optical density incubated for 48 hrs by MTT assay; format: functional, cell-based; details: HCT-116, 48 h
HeLa [23] = test: Effect on caspase 3 expression level in Bax deficient human HeLa cells at 0.6 to 1.2 uM incubated for 24 hrs by Western blot analysis; format: functional, cell-based; details: dose 0.6-1.2 µM
HeLa [24] = test: Upregulation of autophagy pathway related gene expression in human HeLa cells at 1.2 uM incubated for 24 hrs by heat-map analysis; format: functional, cell-based
Ca-Ski [25] = test: Induction of apoptosis in human Ca Ski cells assessed as necrotic cells at 1 uM incubated for 24 hrs by Annexin V-FITC/PI staining based flow cytometric analysis (reference value: 3.15 %); format: functional
HeLa [26] = test: Induction of apoptosis in human HeLa cells assessed as necrotic cells at 0.6 uM incubated for 24 hrs by Annexin V-FITC/PI staining based flow cytometric analysis (reference value: 1.88 %); format: functional
HeLa [27] = test: Antiproliferative activity against p53 deficient human HeLa cells assessed as inhibition of cell viability incubated for 24 hrs by CCK8 assay; format: functional, cell-based
HeLa [28] = test: Upregulation of autophagy pathway related gene expression in human HeLa cells at 1.2 uM incubated for 24 hrs by GSVA enrichment analysis; format: functional, cell-based
HeLa [29] = test: Inhibition of colony formation in human HeLa cells assessed as reduction in colony forming unit count at 0.15 to 0.6 uM incubated for 24 hrs by crystal violet staining based analysis; format: functional, cell-based; details: dose 0.15-0.6 µM
HeLa [30] = test: Effect on cleaved PARP expression level in human HeLa cells at 0.3 to 1.2 uM incubated for 24 hrs by Western blot analysis; format: functional, cell-based; details: dose 0.3-1.2 µM
HeLa [31] = test: Induction of apoptosis in human HeLa cells assessed as early apoptotic cells at 0.6 uM incubated for 24 hrs by Annexin V-FITC/PI staining based flow cytometric analysis (reference value: 0.97 %); format: functional
Ca-Ski [32] = test: Induction of autophagy in human Ca Ski cells transfected with mRFP-GFP-LC3 plasmid assessed as stable RFP fluorescence at 0.3 to 0.6 uM incubated for 24 hrs by DAPI staining based fluorescence confocal microscopic analysis; format: functional, cell-based; details: dose 0.3-0.6 µM
HeLa [33] = test: Effect on caspase 3 expression level in human HeLa cells at 0.3 to 1.2 uM incubated for 24 hrs by Western blot analysis; format: functional, cell-based; details: dose 0.3-1.2 µM

For `COc1cccc(Nc2ccnc3cc(OCCCCCOc4ccc5c(Nc6cccc(OC)c6)ccnc5c4)ccc23)c1`, the Activity (Ca-Ski [1]) was “inactive”, the Activity [2] was “Non-toxic” and the Activity [3] was “Non-toxic”. The Activity [4] was “Non-toxic”, the inhibition (Ca-Ski [5]) was “Active” and the Activity (HeLa [6]) was “Dose-dependent-effect”. For the same molecule, the IC50 (HeLa [6]) was 648 nM, the Activity [7] was “Non-toxic” and the Activity (HeLa [8]) was “Moderate_effect”. The Activity (HeLa [9]) was “Moderate_effect”, the Activity (Ca-Ski [10]) was “inactive” and the Activity (SiHa) was “Time-dependent-effect”. For the same molecule, the Activity (HeLa [11]) was “inactive”, the inhibition (C-33-A) was “Active” and the inhibition (HeLa [12]) was “Active”. For the same molecule, the Activity (Ca-Ski [13]) was “inactive”, the Activity (HeLa [14]) was “Minimal_effect” and the Activity (Ca-Ski [15]) was “inactive”. The Activity (HeLa [16]) was 1.47%, the Activity (HeLa [17]) was “Active” and the inhibition (Ca-Ski [18]) was “Active”. For the same molecule, the Activity (Ca-Ski [19]) was “Active”, the Activity (HeLa [20]) was “inactive” and the Activity (Ca-Ski [21]) was “Active”. The Activity (Ca-Ski [22]) was “Active”, the IC50 (HCT-116) was 260 nM and the Activity (HeLa [23]) was “inactive”. The Activity (HeLa [24]) was “Active”, the Activity (Ca-Ski [25]) was 2.98% and the Activity (HeLa [26]) was 2.66%. The IC50 (HeLa [27]) was 1110 nM, the Activity (HeLa [28]) was “Active” and the inhibition (HeLa [29]) was “Active”. For the same molecule, the Activity (HeLa [30]) was “inactive”, the Activity (HeLa [31]) was 0.8% and the Activity (Ca-Ski [32]) was “Active”. For the same molecule, the Activity (HeLa [33]) was “inactive”.
